{"source": "paper PMC5379148", "about": "“A phase I study of intravenous and oral rucaparib in combination with chemotherapy in patients with advanced solid tumours” (British Journal of Cancer, 2017)", "assay": "Plasma pharmacokinetics of rucaparib (LC-MS/MS, noncompartmental)", "conditions": "human, plasma; for Tmax / Tmax at 14 days: median (minimum, maximum); for AUC(0-inf): AUCinf", "key": {"[1]": {"conditions": "po, 12 mg, single oral dose 12 mg, day –5, geometric mean (CV%)"}, "[2]": {"conditions": "po, 36 mg, single oral dose 36 mg, day –5, geometric mean (CV%)"}, "[3]": {"conditions": "po, 48 mg, single oral dose 48 mg, day –5, geometric mean (CV%)"}, "[4]": {"conditions": "po, 72 mg, single oral dose 72 mg, day –5, geometric mean (CV%)"}, "[5]": {"conditions": "po, 80 mg, single oral dose 80 mg, day 1, geometric mean (CV%)"}, "[6]": {"conditions": "po, 80 mg, single oral dose 80 mg, day –5, geometric mean (CV%)"}, "[7]": {"conditions": "po, 120 mg, single oral dose 120 mg, day 1, geometric mean (CV%)"}, "[8]": {"conditions": "po, 120 mg, single oral dose 120 mg, day –5, geometric mean (CV%)"}, "[9]": {"conditions": "po, 180 mg, single oral dose 180 mg, day –5, geometric mean (CV%)"}, "[10]": {"conditions": "po, 240 mg, single oral dose 240 mg, day 1, geometric mean (CV%)"}, "[11]": {"conditions": "po, 240 mg, single oral dose 240 mg, day –5, geometric mean (CV%)"}, "[12]": {"conditions": "po, 360 mg, single oral dose 360 mg, day 1, geometric mean (CV%)"}, "[13]": {"conditions": "po, 360 mg, single oral dose 360 mg, day –5, geometric mean (CV%)"}}, "experimental": "On cycle 1 days −10, −5, 1, and 14, plasma samples were obtained from all patients before rucaparib dosing and at 15 and 30 min, and at 1, 1.5, 2.5, 4, 6, 10, and 24 h after the start of the rucaparib administration (i.v. infusion (day −10) or oral (days −5, 1, and 14)). On cycle 1 days −10 and −5, samples were also obtained 48 h after the start of rucaparib administration. Rucaparib concentration was determined using liquid chromatography with tandem mass spectrometry.\nPlasma clearance or apparent plasma clearance and steady-state volume of distribution were calculated for rucaparib. The oral bioavailability of rucaparib was calculated as the ratio of dose-normalised AUC0–t or AUCinf (data permitting) determined using oral rucaparib PK data collected on cycle 1 day −5 to that determined using the i.v. PK data collected on cycle 1 day −10. Pharmacokinetic parameters were summarised with the geometric mean and the coefficient of variation (CV). The ratio of Cmax and AUC0–24 of rucaparib administered in combination with chemotherapies to those of rucaparib alone was calculated and summarised, with mean and CV% to evaluate the effect of chemotherapies on the PK of rucaparib for both the i.v. dose (day −10) and oral dose (day −5).\nThe oral bioavailability of rucaparib was calculated as the ratio of dose-normalised AUC0-t or AUCinf (data permitting) determined using oral rucaparib PK data collected on cycle 1 day –5 to that determined using the intravenous PK data collected on cycle 1 day –10. The tmax was summarised with medians and ranges. The accumulation ratio after multiple oral rucaparib dosing (once daily) was assessed as the ratio of the AUC0-24 determined using PK collected on cycle 1 day 14 to the AUC0-24 after the cycle 1 day –5 lead-in dose. The ratio of the Cmax on day 14 to the Cmax on day –5 was also calculated. Additionally, the ratio of the AUC0-24 on cycle 1 day 14 to the AUCinf after the cycle 1 day –5 lead-in dose was calculated as an indication for any time-dependent change in rucaparib PK.", "data": [{"smiles": "CNCc1ccc(-c2[nH]c3cc(F)cc4c3c2CCNC4=O)cc1", "note": "[rucaparib]", "values": [{"measurement": "Cmax", "setting": "iv, 40 mg, single i.v. dose 40 mg, day –10, geometric mean (CV%)", "value": 1610, "unit": "ng/mL"}, {"measurement": "Tmax", "setting": "iv, 40 mg, single i.v. dose 40 mg, day –10", "value": 0.5, "unit": "h"}, {"measurement": "bioavailability", "setting": "po", "value": 36, "unit": "%"}, {"measurement": "bioavailability", "setting": "po, 12 mg", "value": 33.4, "unit": "%"}, {"measurement": "AUC(0-t)", "setting": "po, 12 mg, AUC0-24, single oral dose 12 mg, day –5, geometric mean (CV%)", "value": 155, "unit": "ng·h/mL"}, {"measurement": "AUC(0-inf)", "setting": "[1]", "value": 225, "unit": "ng·h/mL"}, {"measurement": "Cmax", "setting": "[1]", "value": 24, "unit": "ng/mL"}, {"measurement": "Tmax", "setting": "po, 12 mg, single oral dose 12 mg, day –5", "value": 1, "unit": "h"}, {"measurement": "bioavailability", "setting": "po, 36 mg", "value": 45.3, "unit": "%"}, {"measurement": "AUC(0-t)", "setting": "po, 36 mg, AUC0-24, single oral dose 36 mg, day –5, geometric mean (CV%)", "value": 696, "unit": "ng·h/mL"}, {"measurement": "AUC(0-inf)", "setting": "[2]", "value": 1100, "unit": "ng·h/mL"}, {"measurement": "Cmax", "setting": "[2]", "value": 90, "unit": "ng/mL"}, {"measurement": "Tmax", "setting": "po, 36 mg, single oral dose 36 mg, day –5", "value": 2, "unit": "h"}, {"measurement": "bioavailability", "setting": "po, 48 mg", "value": 33.6, "unit": "%"}, {"measurement": "AUC(0-t)", "setting": "po, 48 mg, AUC0-24, single oral dose 48 mg, day –5, geometric mean (CV%)", "value": 620, "unit": "ng·h/mL"}, {"measurement": "AUC(0-inf)", "setting": "[3]", "value": 922, "unit": "ng·h/mL"}, {"measurement": "Cmax", "setting": "[3]", "value": 80, "unit": "ng/mL"}, {"measurement": "Tmax", "setting": "po, 48 mg, single oral dose 48 mg, day –5", "value": 1.25, "unit": "h"}, {"measurement": "bioavailability", "setting": "po, 72 mg", "value": 30.1, "unit": "%"}, {"measurement": "AUC(0-t)", "setting": "po, 72 mg, AUC0-24, single oral dose 72 mg, day –5, geometric mean (CV%)", "value": 893, "unit": "ng·h/mL"}, {"measurement": "AUC(0-inf)", "setting": "[4]", "value": 1090, "unit": "ng·h/mL"}, {"measurement": "Cmax", "setting": "[4]", "value": 108, "unit": "ng/mL"}, {"measurement": "Tmax", "setting": "po, 72 mg, single oral dose 72 mg, day –5", "value": 2, "unit": "h"}, {"measurement": "bioavailability", "setting": "po, 80 mg", "value": 30.7, "unit": "%"}, {"measurement": "AUC(0-t)", "setting": "po, 80 mg, AUC0-24, oral 80 mg q.d. for 14 days, n = 1", "value": 2210, "unit": "ng·h/mL"}, {"measurement": "AUC(0-t)", "setting": "po, 80 mg, AUC0-24, single oral dose 80 mg, day 1, geometric mean (CV%)", "value": 1380, "unit": "ng·h/mL"}, {"measurement": "AUC(0-t)", "setting": "po, 80 mg, AUC0-24, single oral dose 80 mg, day –5, geometric mean (CV%)", "value": 1270, "unit": "ng·h/mL"}, {"measurement": "AUC(0-inf)", "setting": "[5]", "value": 1700, "unit": "ng·h/mL"}, {"measurement": "AUC(0-inf)", "setting": "[6]", "value": 1920, "unit": "ng·h/mL"}, {"measurement": "Cmax", "setting": "po, 80 mg, oral 80 mg q.d. for 14 days, n = 1", "value": 190, "unit": "ng/mL"}, {"measurement": "Cmax", "setting": "[5]", "value": 99, "unit": "ng/mL"}, {"measurement": "Cmax", "setting": "[6]", "value": 114, "unit": "ng/mL"}, {"measurement": "Tmax at 14 days", "setting": "po, 80 mg, oral 80 mg q.d. for 14 days", "value": 2.5, "unit": "h"}, {"measurement": "Tmax", "setting": "po, 80 mg, single oral dose 80 mg, day 1", "value": 4, "unit": "h"}, {"measurement": "Tmax", "setting": "po, 80 mg, single oral dose 80 mg, day –5", "value": 2.5, "unit": "h"}, {"measurement": "bioavailability", "setting": "po, 120 mg", "value": 41.1, "unit": "%"}, {"measurement": "AUC(0-t)", "setting": "po, 120 mg, AUC0-24, oral 120 mg q.d. for 14 days, geometric mean (CV%)", "value": 4040, "unit": "ng·h/mL"}, {"measurement": "AUC(0-t)", "setting": "po, 120 mg, AUC0-24, single oral dose 120 mg, day 1, geometric mean (CV%)", "value": 3260, "unit": "ng·h/mL"}, {"measurement": "AUC(0-t)", "setting": "po, 120 mg, AUC0-24, single oral dose 120 mg, day –5, geometric mean (CV%)", "value": 2920, "unit": "ng·h/mL"}, {"measurement": "AUC(0-inf)", "setting": "[7]", "value": 3770, "unit": "ng·h/mL"}, {"measurement": "AUC(0-inf)", "setting": "[8]", "value": 4070, "unit": "ng·h/mL"}, {"measurement": "Cmax", "setting": "po, 120 mg, oral 120 mg q.d. for 14 days, geometric mean (CV%)", "value": 375, "unit": "ng/mL"}, {"measurement": "Cmax", "setting": "[7]", "value": 344, "unit": "ng/mL"}, {"measurement": "Cmax", "setting": "[8]", "value": 274, "unit": "ng/mL"}, {"measurement": "Tmax at 14 days", "setting": "po, 120 mg, oral 120 mg q.d. for 14 days", "value": 2.5, "unit": "h"}, {"measurement": "Tmax", "setting": "po, 120 mg, single oral dose 120 mg, day 1", "value": 4, "unit": "h"}, {"measurement": "Tmax", "setting": "po, 120 mg, single oral dose 120 mg, day –5", "value": 4, "unit": "h"}, {"measurement": "AUC(0-t)", "setting": "po, 180 mg, AUC0-24, oral 180 mg q.d. for 14 days, geometric mean (CV%)", "value": 7660, "unit": "ng·h/mL"}, {"measurement": "AUC(0-t)", "setting": "po, 180 mg, AUC0-24, single oral dose 180 mg, day 1, geometric mean (CV%)", "value": 5920, "unit": "ng·h/mL"}, {"measurement": "AUC(0-t)", "setting": "po, 180 mg, AUC0-24, single oral dose 180 mg, day –5, geometric mean (CV%)", "value": 5610, "unit": "ng·h/mL"}, {"measurement": "AUC(0-inf)", "setting": "[9]", "value": 8410, "unit": "ng·h/mL"}, {"measurement": "Cmax", "setting": "po, 180 mg, oral 180 mg q.d. for 14 days, geometric mean (CV%)", "value": 454, "unit": "ng/mL"}, {"measurement": "Cmax", "setting": "po, 180 mg, single oral dose 180 mg, day 1, geometric mean (CV%)", "value": 527, "unit": "ng/mL"}, {"measurement": "Cmax", "setting": "[9]", "value": 410, "unit": "ng/mL"}, {"measurement": "Tmax at 14 days", "setting": "po, 180 mg, oral 180 mg q.d. for 14 days", "value": 4, "unit": "h"}, {"measurement": "Tmax", "setting": "po, 180 mg, single oral dose 180 mg, day 1", "value": 6, "unit": "h"}, {"measurement": "Tmax", "setting": "po, 180 mg, single oral dose 180 mg, day –5", "value": 4, "unit": "h"}, {"measurement": "AUC(0-t)", "setting": "po, 240 mg, AUC0-24, oral 240 mg q.d. for 14 days, geometric mean (CV%)", "value": 7560, "unit": "ng·h/mL"}, {"measurement": "AUC(0-t)", "setting": "po, 240 mg, AUC0-24, single oral dose 240 mg, day 1, geometric mean (CV%)", "value": 5130, "unit": "ng·h/mL"}, {"measurement": "AUC(0-t)", "setting": "po, 240 mg, AUC0-24, single oral dose 240 mg, day –5, geometric mean (CV%)", "value": 5030, "unit": "ng·h/mL"}, {"measurement": "AUC(0-inf)", "setting": "[10]", "value": 4370, "unit": "ng·h/mL"}, {"measurement": "AUC(0-inf)", "setting": "[11]", "value": 6990, "unit": "ng·h/mL"}, {"measurement": "Cmax", "setting": "po, 240 mg, oral 240 mg q.d. for 14 days, geometric mean (CV%)", "value": 527, "unit": "ng/mL"}, {"measurement": "Cmax", "setting": "[10]", "value": 493, "unit": "ng/mL"}, {"measurement": "Cmax", "setting": "[11]", "value": 442, "unit": "ng/mL"}, {"measurement": "Tmax at 14 days", "setting": "po, 240 mg, oral 240 mg q.d. for 14 days", "value": 4, "unit": "h"}, {"measurement": "Tmax", "setting": "po, 240 mg, single oral dose 240 mg, day 1", "value": 4, "unit": "h"}, {"measurement": "Tmax", "setting": "po, 240 mg, single oral dose 240 mg, day –5", "value": 4, "unit": "h"}, {"measurement": "AUC(0-t)", "setting": "po, 360 mg, AUC0-24, oral 360 mg q.d. for 14 days, geometric mean (CV%)", "value": 15600, "unit": "ng·h/mL"}, {"measurement": "AUC(0-t)", "setting": "po, 360 mg, AUC0-24, single oral dose 360 mg, day 1, geometric mean (CV%)", "value": 8280, "unit": "ng·h/mL"}, {"measurement": "AUC(0-t)", "setting": "po, 360 mg, AUC0-24, single oral dose 360 mg, day –5, geometric mean (CV%)", "value": 9170, "unit": "ng·h/mL"}, {"measurement": "AUC(0-inf)", "setting": "[12]", "value": 9980, "unit": "ng·h/mL"}, {"measurement": "AUC(0-inf)", "setting": "[13]", "value": 11000, "unit": "ng·h/mL"}, {"measurement": "Cmax", "setting": "po, 360 mg, oral 360 mg q.d. for 14 days, geometric mean (CV%)", "value": 1050, "unit": "ng/mL"}, {"measurement": "Cmax", "setting": "[12]", "value": 697, "unit": "ng/mL"}, {"measurement": "Cmax", "setting": "[13]", "value": 814, "unit": "ng/mL"}, {"measurement": "Tmax at 14 days", "setting": "po, 360 mg, oral 360 mg q.d. for 14 days", "value": 4, "unit": "h"}, {"measurement": "Tmax", "setting": "po, 360 mg, single oral dose 360 mg, day 1", "value": 4, "unit": "h"}, {"measurement": "Tmax", "setting": "po, 360 mg, single oral dose 360 mg, day –5", "value": 4, "unit": "h"}]}]}
